According to US20210205272A1, “DOSING REGIMENS FOR TREATMENT OF SOLID TUMORS HAVING ONE OR MORE GENETIC ALTERATIONS IN FGFR1, FGFR2, AND/OR FGFR3” (DEBIOPHARM INTERNATIONAL, S.A., priority 2018, published 2021):

Columns and labels:
[1] = test system: advanced solid malignancies of any histological tumor type harboring an FGFR 1, 2 or 3 fusion; assay: Expansion part of Debio 1347-101 phase I study: tumor response by RECIST 1.1; type: in vivo, human; conditions: 80 mg once daily
Experimental: The primary objective of this expansion phase is to confirm the safety profile at the RP2D of 80 mg once daily.
As of January 2019, two patients achieved a BOR of PR by investigator assessment according to RECIST 1.1 criteria, one suffering from a cholangiocarcinoma harboring a FGFR2-TACC2 fusion and one suffering from a colon cancer harboring a FGFR2-RP11-89K10.1 fusion.

clinical = conditions: in vivo
[2] = test system: advanced solid tumors harboring FGFR 1, 2 or 3 gene alterations; assay: Phase I dose escalation Debio 1347-101: tumor response by RECIST 1.1; type: in vivo, human
[3] = 10 patients with confirmed FGFR fusions, doses ≥60 mg/day
[4] = confirmed FGFR fusions, doses ≥60 mg/day
[5] = one patient, intrahepatic cholangiocarcinoma, FGFR2 deletion of exon 5

Which drug-related deaths (58 treated patients) does the source give for `Cc1nc2cc(-n3ncc(C(=O)c4cc5ccccc5[nH]4)c3N)ccc2[nH]1` [Debio 1347, 5-amino-1-(2-methyl-1H-benzo[d]imidazol-5-yl)-1H-pyrazol-4-yl 1H-indol-2-yl ketone] here?
The drug-related deaths was “no death was considered drug-related”.

What about the “maximum tolerated dose (MTD)” value (escalated up to 150 mg, ≤2 DLTs at the same dose level) of the same compound?
Its value is “not formally reached”.

And the “TEAE highest severity grade 1” value (human, in vivo)?
Its value is 4 (6.9%) patients.

And the “TEAE highest severity grade 2” value (human, in vivo)?
Its value is 17 (29.3%) patients.

And the “TEAE highest severity grade 3” value (human, in vivo)?
Its value is 28 (48.3%) patients.

And the “TEAE highest severity grade 4” value (human, in vivo)?
Its value is 2 (3.4%) patients.

What about the “number of serious adverse effects (SAEs)” value (human, in vivo) of the same compound?
Its value is 39 SAEs.

What about the “patients experiencing serious adverse effects (SAEs)” value (human, in vivo) of the same compound?
Its value is 20 patients.

What about the “patients requiring a dose reduction” value (human, in vivo) of the same compound?
The value was 20%.

And the “patients requiring a dose reduction after the 28-day DLT period” value (human, in vivo)?
Its value is 7 out of 9.

And the “patients requiring dose modifications due to adverse events” value (human, in vivo)?
The value was 30 (51.7%) patients.

What about the “SAEs deemed possibly study drug related (DLTs)” value (in vivo) of the same compound?
Its value is “two”.

And the “TEAEs most often severe (grade >2)” value (in vivo)?
The value was “hyperphosphatemia, anemia, hyponatremia, and dyspnea”.

And the dose reduction required (in vivo)?
Its dose reduction required is “no dose reduction was required at all”.

And the “most common TEAEs with an incidence ≥25%” value (in vivo)?
Its value is “hyperphosphatemia, diarrhea, nausea, fatigue, constipation, decreased appetite, nail changes, and dry mouth”.

And the safety profile (in vivo)?
The safety profile was “tolerable and manageable safety profile”.

And the “TEAE highest severity grade 5” value (of 58 treated patients)?
The value was 7 (12.1%) patients.

What about the “patients died from disease progression” value (of 58 treated patients) of the same compound?
Its value is 21 patients.

What about the tumor volume reduction ([1]; cholangiocarcinoma FGFR2-ATAD2 fusion, after 6 weeks of treatment) of the same compound?
The tumor volume reduction was “about 7%”.

What about the “patients with BOR of PR by investigator assessment” value ([1]; cholangiocarcinoma FGFR2-TACC2 fusion and colon cancer FGFR2-RP11-89K10.1 fusion, as of January 2019) of the same compound?
The value was “two”.

And the best response ([1]; one patient, cholangiocarcinoma FGFR2-ATAD2 fusion)?
The best response was “disease stabilization (SD)”.

What about the half-life (clinical; human, po) of the same compound?
Its half-life is 11.5 h.

And the hyperphosphatemia dose relation (clinical)?
Its hyperphosphatemia dose relation is “dose-dependent”.

And the “patients achieving PR” value [2, 3]?
Its value is 3 patients.

What about the “patients achieving disease stabilization” value [2, 3] of the same compound?
The value was 5 patients.

What about the “patients with progressive disease” value ([2]; 57 evaluable patients) of the same compound?
Its value is 35 patients.

And the “patients with stable disease” value ([2]; 57 evaluable patients)?
The value was 16 patients.

And the “tumor type, FGFR alteration and dose of the six PRs” value ([2]; 57 evaluable patients)?
The value was “two had urothelial carcinoma (FGFR3 fusion—80, 150 mg), the others uterine (FGFR1 amplified—30 mg), cervical (FGFR2 amplified—80 mg), colon cancer (FGFR1 amplified—110 mg) or cholangiocarcinoma (FGFR2 mutation—110 mg)”.

And the “patients with partial response (PR), overall” value ([2]; 57 patients evaluable for tumor response)?
Its value is 6 patients.

And the “disease control rate (DCR) overall” value ([2]; all evaluable patients)?
The value was 38.6%.

What about the “response after independent centralized radiological review” value ([2]; cholangiocarcinoma, FGFR2 mutation, 110 mg) of the same compound?
Its value is “confirmed completed response (CR)”.

What about the “disease control rate (DCR)” value [2, 4] of the same compound?
The value was 80%.

And the “median treatment duration in patients with disease control” value [2, 4]?
The value was 34 weeks.

What about the “range of treatment duration in patients with disease control” value [2, 4] of the same compound?
The value was 24-47 weeks.

And the antitumor activity ([2]; mainly FGFR2 or 3 gene alterations incl. fusion/translocation, 80 mg and 110 mg daily)?
The antitumor activity was “Encouraging antitumor activity”.

And the “stable disease patients with reduced target lesion size ≤30% at least once on-treatment” value ([2]; of 16 with stable disease)?
The value was 10 patients.

What about the “patients with progressive disease per clinical assessment in absence of radiographic evidence” value ([2]; of 35 with progressive disease) of the same compound?
The value was 13 patients.

And the “duration of partial response” value [2, 5]?
Its value is “up to 48 weeks”.

And the “response upon independent radiological review” value [2, 5]?
The value was “complete response”.
